Assay results from patent US20260049092A1, “ANTIBACTERIAL COMPOUNDS” (Blacksmith Medicines, Inc., priority 2022, published 2026).
Converted amounts (≈) assume the structure as drawn. Like-named read-outs stand apart in the source and are kept apart here.

Assays:
Experiment in all cases: Bacterial susceptibility testing (MIC, broth microdilution)
Format in all cases: cell-based
[1] = system: P. aeruginosa PAO1; details: for MIC: Pseudomonas aeruginosa
Procedure, shortened: (§1)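 CLSI broth microdilution was run in cation-adjusted Mueller-Hinton broth with an inoculum of 3×10^5–7×10^5 CFU/mL and 2-fold compound dilutions. Plates were incubated in ambient air at 35° C for 18-24 h. MIC was the lowest concentration preventing visible growth (OD600 nm<0.05).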

[2] = system: K. pneumoniae ATCC13883; details: for MIC: Klebsiella pneumoniae
Procedure, shortened: as §1

[3] = system: P. aeruginosa ATCC27853; details: for MIC: Pseudomonas aeruginosa
Procedure, shortened: as §1

[4] = system: E. coli ATCC25922; details: for MIC: Escherichia coli
Procedure, shortened: as §1

[5] = PAO1, broth microdilution, cation adjusted Mueller-Hinton Broth, 35° C., 18-24 h, read-out: P. aeruginosa PAO1 MIC
[6] = ATCC13883, broth microdilution, cation adjusted Mueller-Hinton Broth, 35° C., 18-24 h, read-out: K. pneumoniae ATCC13883 MIC
[7] = ATCC27853, broth microdilution, cation adjusted Mueller-Hinton Broth, 35° C., 18-24 h, read-out: P. aeruginosa ATCC27853 MIC
[8] = ATCC25922, broth microdilution, cation adjusted Mueller-Hinton Broth, 35° C., 18-24 h, read-out: E. coli ATCC25922 MIC
[9] = broth microdilution, cation adjusted Mueller-Hinton Broth, 35° C., 18-24 h
[10] = PAO1, read-out: P. aeruginosa PAO1 MIC
[11] = ATCC13883, read-out: K. pneumoniae ATCC13883 MIC
[12] = ATCC27853, read-out: P. aeruginosa ATCC27853 MIC
[13] = ATCC25922, read-out: E. coli ATCC25922 MIC

MIC [1, 5] [µg/mL] | MIC [2, 6] [µg/mL] | MIC [3, 7] [µg/mL] | MIC [4, 8] [µg/mL] | SMILES | also measured
2 (≈ 4.78 µM) | 1 (≈ 2.39 µM) | 8 (≈ 19.1 µM) | 1 (≈ 2.39 µM) | C[C@H](O)c1nccn1[C@@H](C#Cc1ccc(-c2ccc([C@H]3COC[C@@H]3O)cc2)cc1)CO (single isomer, unassigned) [Compound 115] | –
1 (≈ 2.39 µM) | 2 (≈ 4.78 µM) | 4 (≈ 9.56 µM) | 0.5 (≈ 1.19 µM) | C[C@H](O)c1nccn1[C@@H](C#Cc1ccc(-c2ccc([C@@H]3COC[C@H]3O)cc2)cc1)CO (single isomer, unassigned) [Compound 116] | –
2 (≈ 4.46 µM) | 2 (≈ 4.46 µM) | 4 (≈ 8.92 µM) | 2 (≈ 4.46 µM) | C[C@H](O)c1nccn1[C@@H](C#Cc1ccc(-c2ccc(CO[C@@H]3COC[C@H]3O)cc2)cc1)CO (single isomer, unassigned) [Compound 123] | –
2 (≈ 4.46 µM) | 1 (≈ 2.23 µM) | 4 (≈ 8.92 µM) | 0.5 (≈ 1.11 µM) | CO[C@@H]1COC[C@H]1Oc1ccc(-c2ccc(C#C[C@@H](CO)n3ccnc3[C@H](C)O)cc2)cc1 (single isomer, unassigned) [Compound 126] | –
4 (≈ 10.6 µM) | 8 (≈ 21.3 µM) | 8 (≈ 21.3 µM) | 1 (≈ 2.66 µM) | C[C@H](O)c1ccc(-c2ccc(C#C[C@@H](CO)n3ccnc3[C@H](C)O)cc2)cc1 (single isomer, unassigned) [Compound 134] | –
2 (≈ 4.96 µM) | 4 (≈ 9.91 µM) | 8 (≈ 19.8 µM) | 4 (≈ 9.91 µM) | CC(=O)NCc1ccc(-c2ccc(C#C[C@@H](CO)n3ccnc3[C@H](C)O)cc2)cc1 (single isomer, unassigned) [Compound 143] | –
2 (≈ 4.39 µM) | 2 (≈ 4.39 µM) | 4 (≈ 8.78 µM) | 1 (≈ 2.2 µM) | C[C@H](O)c1nccn1[C@@H](C#Cc1ccc(-c2ccc(NC3CC(NCC#N)C3)cc2)cc1)CO (stereo partly drawn) [Compound 68, 2-((3-((4′-((S)-4-hydroxy-3-(2-((S)-1-hydroxyethyl)-1H-imidazol-1-yl)but-1-yn-1-yl)-[1,1′-biphenyl]-4-yl)amino)cyclobutyl)amino) acetonitrile] | –
4 (≈ 9.23 µM) | 4 (≈ 9.23 µM) | 4 (≈ 9.23 µM) | 2 (≈ 4.61 µM) | C[C@H](O)c1nccn1[C@@H](C#Cc1ccc(-c2ccc(N[C@H]3COC[C@@H]3O)cc2)cc1)CO [Compound 71, (3R,4S)-4-((4′-((S)-4-hydroxy-3-(2-((S)-1-hydroxyethyl)-1H-imidazol-1-yl)but-1-yn-1-yl)-[1,1′-biphenyl]-4-yl)amino)tetrahydrofuran-3-ol] | –
2 (≈ 4.46 µM) | 2 (≈ 4.46 µM) | 8 (≈ 17.8 µM) | 1 (≈ 2.23 µM) | C[C@H](O)c1nccn1[C@@H](C#Cc1ccc(-c2ccc(O[C@@H]3CCOC[C@H]3O)cc2)cc1)CO [Compound 72, (3R,4R)-4-((4′-((S)-4-hydroxy-3-(2-((S)-1-hydroxyethyl)-1H-imidazol-1-yl)but-1-yn-1-yl)-[1,1′-biphenyl]-4-yl)oxy)tetrahydro-2H-pyran-3-ol] | –
2 (≈ 4.46 µM) | 2 (≈ 4.46 µM) | 8 (≈ 17.8 µM) | 2 (≈ 4.46 µM) | C[C@H](O)c1nccn1[C@@H](C#Cc1ccc(-c2ccc(O[C@H]3CCOC[C@@H]3O)cc2)cc1)CO [Compound 73, (3S,4S)-4-((4′-((S)-4-hydroxy-3-(2-((S)-1-hydroxyethyl)-1H-imidazol-1-yl)but-1-yn-1-yl)-[1,1′-biphenyl]-4-yl)oxy)tetrahydro-2H-pyran-3-ol] | –
4 (≈ 9.27 µM) | 4 (≈ 9.27 µM) | 4 (≈ 9.27 µM) | 1 (≈ 2.32 µM) | C[C@H](O)c1nccn1[C@@H](C#Cc1ccc(-c2ccc(N[C@@H]3CCC[C@H]3O)cc2)cc1)CO [Compound 78, (1R,2R)-2-((4′-((S)-4-hydroxy-3-(2-((S)-1-hydroxyethyl)-1H-imidazol-1-yl)but-1-yn-1-yl)-[1,1′-biphenyl]-4-yl)amino)cyclopentan-1-ol] | –

The remaining lines, values behind:

SMILES | MIC [1, 5] [µg/mL] | MIC [2, 6] [µg/mL] | MIC [3, 7] [µg/mL] | MIC [4, 8] [µg/mL] | also measured
CO[C@@H]1COC[C@H]1Oc1ccc(-c2ccc(C#C[C@@H](CO)n3ccnc3[C@H](C)O)cc2)cc1 (single isomer, unassigned) [Compound 125] | – | – | – | – | P. aeruginosa PAO1 MIC [1, 9]: 2 µg/mL; K. pneumoniae ATCC13883 MIC [2, 9]: 2 µg/mL; P. aeruginosa ATCC27853 MIC [3, 9]: 8 µg/mL; E. coli ATCC25922 MIC [4, 9]: 1 µg/mL
C[C@H](O)c1nccn1[C@@H](C#Cc1ccc(-c2ccc(NC3CN(CCC#N)C3)cc2)cc1)CO [Compound 79, 3-(3-((4′-((S)-4-hydroxy-3-(2-((S)-1-hydroxyethyl)-1H-imidazol-1-yl)but-1-yn-1-yl)-[1,1′-biphenyl]-4-yl)amino)azetidin-1-yl)propanenitrile] | – | – | – | – | MIC [1, 10]: 2 µg/mL (≈ 4.39 µM); MIC [2, 11]: 8 µg/mL (≈ 17.6 µM); MIC [3, 12]: 4 µg/mL (≈ 8.78 µM); MIC [4, 13]: 1 µg/mL (≈ 2.2 µM)
C[C@H](O)c1nccn1[C@@H](C#Cc1ccc(-c2ccc(OCC3(C)COC3)cc2)cc1)CO [Compound 80, (S)-2-(2-((S)-1-hydroxyethyl)-1H-imidazol-1-yl)-4-(4′-((3-methyloxetan-3-yl)methoxy)-[1,1′-biphenyl]-4-yl)but-3-yn-1-ol] | 2 (≈ 4.62 µM) | 2 (≈ 4.62 µM) | 4 (≈ 9.25 µM) | 0.5 (≈ 1.16 µM) | –
C[C@H](O)c1nccn1[C@@H](C#Cc1ccc(-c2ccc(NC3CC3)cc2)cc1)CO [Compound 81, (S)-4-(4′-(cyclopropylamino)-[1,1′-biphenyl]-4-yl)-2-(2-((S)-1-hydroxyethyl)-1H-imidazol-1-yl)but-3-yn-1-ol] | – | – | – | – | MIC [1, 10]: 2 µg/mL (≈ 5.16 µM); MIC [2, 11]: 0.5 µg/mL (≈ 1.29 µM); MIC [3, 12]: 8 µg/mL (≈ 20.6 µM); MIC [4, 13]: 0.25 µg/mL (≈ 0.645 µM)
C[C@H](O)c1nccn1[C@@H](C#Cc1ccc(-c2ccc3c(c2)OCCO3)cc1)CO [Compound 82, (S)-4-(4-(2,3-dihydrobenzo[b][1,4]dioxin-6-yl)phenyl)-2-(2-((S)-1-hydroxyethyl)-1H-imidazol-1-yl) but-3-yn-1-ol] | 4 (≈ 10.2 µM) | 1 (≈ 2.56 µM) | > 32 | 0.25 (≈ 0.64 µM) | –
C[C@H](O)c1nccn1[C@@H](C#Cc1ccc(-c2ccc3c(c2)NCCO3)cc1)CO [Compound 83, (S)-4-(4-(3,4-dihydro-2H-benzo[b][1,4]oxazin-6-yl)phenyl)-2-(2-((S)-1-hydroxyethyl)-1H-imidazol-1-yl)but-3-yn-1-ol] | 16 (≈ 41.1 µM) | 4 (≈ 10.3 µM) | > 32 | 2 (≈ 5.14 µM) | –
C[C@H](O)c1nccn1[C@@H](C#Cc1ccc(-c2ccc3c(c2)NC(=O)C3)cc1)CO [Compound 84, 6-(4-((S)-4-hydroxy-3-(2-((S)-1-hydroxyethyl)-1H-imidazol-1-yl)but-1-yn-1-yl)phenyl)indolin-2-one] | 8 (≈ 20.6 µM) | 32 (≈ 82.6 µM) | 16 (≈ 41.3 µM) | 8 (≈ 20.6 µM) | –
C[C@H](O)c1nccn1[C@@H](C#Cc1ccc(-c2ccc3c(c2)CCN3)cc1)CO [Compound 85, (S)-2-(2-((S)-1-hydroxyethyl)-1H-imidazol-1-yl)-4-(4-(indolin-5-yl)phenyl)but-3-yn-1-ol] | 16 (≈ 42.8 µM) | 2 (≈ 5.36 µM) | > 32 | 1 (≈ 2.68 µM) | –
C[C@H](O)c1nccn1[C@@H](C#Cc1ccc(-c2ccc(OC3CN(CC(F)(F)F)C3)cc2)cc1)CO [Compound 86, (S)-2-(2-((S)-1-hydroxyethyl)-1H-imidazol-1-yl)-4-(4′-((1-(2,2,2-trifluoroethyl)azetidin-3-yl)oxy)-[1,1′-biphenyl]-4-yl)but-3-yn-1-ol] | – | – | – | – | MIC [1, 10]: 4 µg/mL (≈ 8.24 µM); MIC [2, 11]: 2 µg/mL (≈ 4.12 µM); MIC [3, 12]: 16 µg/mL (≈ 33 µM); MIC [4, 13]: 1 µg/mL (≈ 2.06 µM)
C[C@H](O)c1nccn1[C@@H](C#Cc1ccc(-c2ccc(OC3CN(C4(C#N)COC4)C3)cc2)cc1)CO [Compound 87, 3-(3-((4′-((S)-4-hydroxy-3-(2-((S)-1-hydroxyethyl)-1H-imidazol-1-yl)but-1-yn-1-yl)-[1,1′-biphenyl]-4-yl)oxy)azetidin-1-yl)oxetane-3-carbonitrile] | 4 (≈ 8.25 µM) | 4 (≈ 8.25 µM) | 8 (≈ 16.5 µM) | 2 (≈ 4.13 µM) | –
CC(=O)N1CC(Oc2ccc(-c3ccc(C#C[C@@H](CO)n4ccnc4[C@H](C)O)cc3)cc2)C1 [Compound 88, 1-(3-((4′-((S)-4-hydroxy-3-(2-((S)-1-hydroxyethyl)-1H-imidazol-1-yl)but-1-yn-1-yl)-[1,1′-biphenyl]-4-yl)oxy)azetidin-1-yl)ethan-1-one] | – | – | – | – | MIC [1, 10]: 2 µg/mL (≈ 4.49 µM); MIC [2, 11]: 2 µg/mL (≈ 4.49 µM); MIC [3, 12]: 4 µg/mL (≈ 8.98 µM); MIC [4, 13]: 1 µg/mL (≈ 2.24 µM)
C[C@H](O)c1nccn1[C@@H](C#Cc1ccc(-c2ccc(OC3CN(S(C)(=O)=O)C3)cc2)cc1)CO [Compound 89, (S)-2-(2-((S)-1-hydroxyethyl)-1H-imidazol-1-yl)-4-(4′-((1-(methylsulfonyl)azetidin-3-yl)oxy)-[1,1′-biphenyl]-4-yl)but-3-yn-1-ol] | – | – | – | – | MIC [1, 10]: 4 µg/mL (≈ 8.31 µM); MIC [2, 11]: 2 µg/mL (≈ 4.15 µM); MIC [3, 12]: 8 µg/mL (≈ 16.6 µM); MIC [4, 13]: 1 µg/mL (≈ 2.08 µM)
CNC(=O)N1CC(Oc2ccc(-c3ccc(C#C[C@@H](CO)n4ccnc4[C@H](C)O)cc3)cc2)C1 [Compound 90, 3-((4′-((S)-4-hydroxy-3-(2-((S)-1-hydroxyethyl)-1H-imidazol-1-yl)but-1-yn-1-yl)-[1,1′-biphenyl]-4-yl)oxy)-N-methylazetidine-1-carboxamide] | 1 (≈ 2.17 µM) | 4 (≈ 8.69 µM) | 2 (≈ 4.34 µM) | 2 (≈ 4.34 µM) | –
